Experimental data: ChEMBL document CHEMBL1201862, “PubChem BioAssay data set” (2004)
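Following 48 hours of exposure in 96-well plates, responses at five concentrations were used to interpolate endpoints linearly. The concentration for 50% growth inhibition is given as GI50.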 Calls of active or inactive are those of the source. No stated cut-off is given here; in the data, active = GI50 up to about 1.1 µM and inactive = higher.

What was measured:
Assay in all cases: NCI tumour cell line growth inhibition, 48 h
TK-10 = tested on: TK-10
HOP-62 = tested on: HOP-62
LOX IMVI = tested on: LOX IMVI
SF-539 = tested on: SF-539
IGROV-1 = tested on: IGROV-1
SK-OV-3 = tested on: SK-OV-3
UACC-257 = tested on: UACC-257
DMS-273 = tested on: DMS-273
HT-29 = tested on: HT-29
SK-MEL-28 = tested on: SK-MEL-28
OVCAR-8 = tested on: OVCAR-8
RPMI-8226 = tested on: RPMI-8226
NCI-H226 = tested on: NCI-H226
SN12C = tested on: SN12C
OVCAR-3 = tested on: OVCAR-3
HL-60 = tested on: HL-60
RXF 393 = tested on: RXF 393

Measured: GI50

COc1ccc(-c2[nH]c3ccccc3c2CCNS(=O)(=O)c2ccc(C)cc2)cc1
inactive: TK-10 > 7.8 µM | HOP-62 > 10 µM | LOX IMVI > 10 µM | SF-539 > 10 µM | IGROV-1 > 6.34 µM | SK-OV-3 > 10 µM | UACC-257 > 8.34 µM | DMS-273 7.48 µM | HT-29 6.35 µM | SK-MEL-28 > 10 µM | OVCAR-8 > 7.91 µM | RPMI-8226 4.68 µM | NCI-H226 > 7.6 µM | SN12C > 10 µM | OVCAR-3 7.23 µM | HL-60 6.7 µM | RXF 393 > 10 µM

O=C1CCC(=O)c2ccccc2N1
inactive: TK-10 > 100 µM | HOP-62 > 100 µM | LOX IMVI > 100 µM | SF-539 > 100 µM | IGROV-1 > 100 µM | SK-OV-3 > 100 µM | UACC-257 > 100 µM | DMS-273 > 100 µM | HT-29 > 100 µM | SK-MEL-28 > 100 µM | OVCAR-8 > 100 µM | RPMI-8226 > 100 µM | NCI-H226 > 100 µM | SN12C > 100 µM | OVCAR-3 > 100 µM | HL-60 > 100 µM | RXF 393 > 100 µM

CCCCCCCCCCCCCC(=O)OCC1OC(n2cc(F)c(=O)[nH]c2=O)C(NC(=O)OCc2ccccc2)C(OC(=O)CCCCCCCCCCCCC)C1O (stereo not drawn)
inactive: TK-10 > 100 µM | HOP-62 > 100 µM | LOX IMVI > 100 µM | SF-539 > 100 µM | IGROV-1 > 100 µM | SK-OV-3 > 100 µM | UACC-257 > 100 µM | DMS-273 > 100 µM | HT-29 > 100 µM | SK-MEL-28 > 100 µM | OVCAR-8 > 100 µM | RPMI-8226 > 100 µM | NCI-H226 > 100 µM | SN12C > 100 µM | OVCAR-3 > 100 µM | HL-60 > 100 µM | RXF 393 > 100 µM

N#C/C(=C1\OC(=N)C(c2ccc(Cl)cc2)=C1O)c1ccc(Cl)cc1
inactive: TK-10 26.4 µM | HOP-62 19.1 µM | LOX IMVI 16 µM | SF-539 14.5 µM | IGROV-1 15.7 µM | SK-OV-3 37.8 µM | UACC-257 15 µM | DMS-273 13.5 µM | HT-29 18.9 µM | SK-MEL-28 26.5 µM | OVCAR-8 13.5 µM | RPMI-8226 19 µM | NCI-H226 10 µM | SN12C 11 µM | OVCAR-3 14.8 µM | HL-60 13.3 µM | RXF 393 12.4 µM
